In paper PMC9855386, “Obtaining a Monoclonal Antibody against a Novel Prometryn-Like Hapten and Characterization of Its Selectivity for Triazine Herbicides” (Biosensors, 2022):

Columns and labels:
mouse antiserum = assay: ic-ELISA serum titer and inhibition rate of mice for the fusion experiment (Table S2); assay type: binding; conditions: prometryn 1000 ng/mL
Method: The Institute of Quality Standards and Testing Technology for Agro-Products’ Experimental Animal Welfare and Ethical Committee (IQSTAP-2021-05) approved the use of animals in experiments. The buffer solution (0.01 M PBS, pH = 7.4) was used to dilute the immunogen (2 mg/mL) to 1 mg/mL. After that, Freund’s adjuvant was added to an identical volume of 0.1 mL in a sterile glass vial. The mixture was placed on a magnetic stirrer and stirred and mixed rapidly in an ice bath to fully emulsify. Six 7-week-old female BALB/c mice were selected for immunization. At the beginning of the third immunization, 3–5 days after each immunization, blood was taken from the orbit, incubated at 37 °C for 0.5 h and 4 °C for 2 h, and centrifuged at 1000 r/min for 10 min. Serum was collected, and the serum titer was determined. The immune strategy of mice was the same as that previously reported. Freund’s […] vaccination, and for the subsequent booster vaccination, Freund’s incomplete adjuvant was utilized. Freund’s adjuvant and immunogen during immunization should be 1:1 and thoroughly mixed until dripping into the water to prevent diffusion. The interval of booster immunization was 2 weeks, and the immune dose was 0.1 mg. Three days before fusion, the mice with the best performance were immunized with a dose of 0.05 mg. The mice were intraperitoneally injected without adjuvant.
(§1) The ic-ELISA method was used to screen the best-performing fusion mouse sera. They were used to establish the standard curve of antibodies by detecting the supernatant of positive cells. The buffer required for ic-ELISA was the same as previously reported. The specific steps of the operation are as follows: (1) The coated antigen was added to the microplate by diluting it with the required coating solutions (CBS, pH 9.6, 0.05 mol/L). Each well contained 100 µL, which was incubated at 37 °C for three h before being washed three times with washing buffer (PBST, PBS containing 0.1% Tween-20). (2) With sample dilution buffer (PBSTG, PBST containing 0.1% gelatin), the standard prometryn sample and the antiserum/antibody from mice were diluted to the required concentration. The microplate was incubated for 30 min at 37 °C with 50 µL of diluted antiserum or antibody and standard samples of various concentrations. PBST was used three times to wash the dishes. (3) Then, 100 µL of PBSTG-diluent IgG HRP (labeled goat anti-mouse IgG with HRP) was added to each well. After 30 min at 37 °C, the plate was cleaned three times with PBST. (4) Each well was incubated for 15 min in the dark at 25 °C with 100 µL of TMB color developing solution. To stop the reaction, 50 µL of the hydrochloric acid solution was added to each well. The absorbance at OD450 nm was measured with a TECAN Infinite M200 PRO microplate reader from Männedorf, Switzerland.
Ic-ELISA was used to measure the inhibition rate and serum titer of six immunized mice. Three days before cell fusion, Balb/c mice with the highest performance were selected and immunized. SP2/0 myeloma cells and mouse spleen cells were combined for fusion. After fusion, the supernatant of hybridoma cells was determined by indirect competitive enzyme-linked immunosorbent assay, the positive wells were screened, and the hybridoma cells were cloned to obtain hybridoma cell lines that can stably secrete monoclonal antibodies against prometryn. After the positive cell lines were expanded and cultured, mice treated with paraffin 7 days earlier were injected intraperitoneally. Ascites were collected after abdominal swelling and centrifuged at 4 °C at 1000 rpm, and the potency and inhibition rate of ascites were determined and frozen at −20 °C for purification. The 7D4 mAb against prometryn was obtained by purifying the […] with the octanoic acid-saturated ammonium sulfate method. […]

7D4 mAb = assay: ic-ELISA optimal combination of coated antigen and antibody (Table S3); assay type: binding, mouse; conditions: prometryn 1000 ng/mL
Method: as §1
The ic-ELISA method was used to determine the ideal antibody and antigen mix. The coating antigen and antibody concentration used in the experiment was 1 mg/mL. The dilution multiples of the coating were 1 × 10^3, 2 × 10^3, 4 × 10^3, and 8 × 10^3. The prometryn standard was 1000 ng/mL. The best concentration combination of antigen and antibody was selected to establish the standard curve of the antibody. Prometryn standards were diluted to 1000, 500, 250, 125, 62.5, 31.25, 15.625, 7.8125, 3.90625, and 0 ng/mL, with PBSTG for subsequent ic-ELISA experiments. The standard curve was determined by ic-ELISA. […] Each measured OD value in the curve is the average of three independent repeats. The 7D4 mAb’s inhibition rate was well linearly correlated with the prometryn concentration. […] The 7D4 mAb type was identified as IgG1 using a mouse antibody isotyping kit from Sigma®, St. Louis, MO, USA.

## CSc1nc(NC(C)C)nc(NC(C)C)n1 [Prometryn, 2-methylthio-4,6-di(isopropylamino)-1,3,5-triazobenzene]
Mouse antiserum; dilution of immunogen 1×103, serum dilution 1.28×105
  IR (inhibition rate): -7.66%
Mouse antiserum; dilution of immunogen 1×103, serum dilution 1.6×104
  IR (inhibition rate): 65.86%
Mouse antiserum; dilution of immunogen 1×103, serum dilution 2×103
  IR (inhibition rate): 85.70%
Mouse antiserum; dilution of immunogen 1×103, serum dilution 2.56×105
  IR (inhibition rate): 75.15%
Mouse antiserum; dilution of immunogen 1×103, serum dilution 3.2×104
  IR (inhibition rate): 46.44%
Mouse antiserum; dilution of immunogen 1×103, serum dilution 4×103
  IR (inhibition rate): 88.04%
Mouse antiserum; dilution of immunogen 1×103, serum dilution 6.4×104
  IR (inhibition rate): 35.52%
Mouse antiserum; dilution of immunogen 1×103, serum dilution 8×103
  IR (inhibition rate): 81.46%
Mouse antiserum; dilution of immunogen 1.6×104, serum dilution 1.28×105
  IR (inhibition rate): -52.80%
Mouse antiserum; dilution of immunogen 1.6×104, serum dilution 1.6×104
  IR (inhibition rate): 58.64%
Mouse antiserum; dilution of immunogen 1.6×104, serum dilution 2×103
  IR (inhibition rate): 85.05%
Mouse antiserum; dilution of immunogen 1.6×104, serum dilution 2.56×105
  IR (inhibition rate): 71.56%
Mouse antiserum; dilution of immunogen 1.6×104, serum dilution 3.2×104
  IR (inhibition rate): 28.55%
Mouse antiserum; dilution of immunogen 1.6×104, serum dilution 4×103
  IR (inhibition rate): 82.62%
Mouse antiserum; dilution of immunogen 1.6×104, serum dilution 6.4×104
  IR (inhibition rate): 11.18%
Mouse antiserum; dilution of immunogen 1.6×104, serum dilution 8×103
  IR (inhibition rate): 81.51%
Mouse antiserum; dilution of immunogen 2×103, serum dilution 1.28×105
  IR (inhibition rate): 14.21%
Mouse antiserum; dilution of immunogen 2×103, serum dilution 1.6×104
  IR (inhibition rate): 61.99%
Mouse antiserum; dilution of immunogen 2×103, serum dilution 2×103
  IR (inhibition rate): 85.14%
Mouse antiserum; dilution of immunogen 2×103, serum dilution 2.56×105
  IR (inhibition rate): 74.90%
Mouse antiserum; dilution of immunogen 2×103, serum dilution 3.2×104
  IR (inhibition rate): 51.64%
Mouse antiserum; dilution of immunogen 2×103, serum dilution 4×103
  IR (inhibition rate): 86.95%
Mouse antiserum; dilution of immunogen 2×103, serum dilution 6.4×104
  IR (inhibition rate): 10.11%
Mouse antiserum; dilution of immunogen 2×103, serum dilution 8×103
  IR (inhibition rate): 79.58%
Mouse antiserum; dilution of immunogen 3.2×104, serum dilution 1.28×105
  IR (inhibition rate): 17.80%
Mouse antiserum; dilution of immunogen 3.2×104, serum dilution 1.6×104
  IR (inhibition rate): 74.44%
Mouse antiserum; dilution of immunogen 3.2×104, serum dilution 2×103
  IR (inhibition rate): 84.75%
Mouse antiserum; dilution of immunogen 3.2×104, serum dilution 2.56×105
  IR (inhibition rate): 72.21%
Mouse antiserum; dilution of immunogen 3.2×104, serum dilution 3.2×104
  IR (inhibition rate): 51.77%
Mouse antiserum; dilution of immunogen 3.2×104, serum dilution 4×103
  IR (inhibition rate): 68.48%
Mouse antiserum; dilution of immunogen 3.2×104, serum dilution 6.4×104
  IR (inhibition rate): 28.68%
Mouse antiserum; dilution of immunogen 3.2×104, serum dilution 8×103
  IR (inhibition rate): 80.75%
Mouse antiserum; dilution of immunogen 4×103, serum dilution 1.28×105
  IR (inhibition rate): 7.62%
Mouse antiserum; dilution of immunogen 4×103, serum dilution 1.6×104
  IR (inhibition rate): 63.91%
Mouse antiserum; dilution of immunogen 4×103, serum dilution 2×103
  IR (inhibition rate): 86.78%
Mouse antiserum; dilution of immunogen 4×103, serum dilution 2.56×105
  IR (inhibition rate): 78.43%
Mouse antiserum; dilution of immunogen 4×103, serum dilution 3.2×104
  IR (inhibition rate): 47.70%
Mouse antiserum; dilution of immunogen 4×103, serum dilution 4×103
  IR (inhibition rate): 87.39%
Mouse antiserum; dilution of immunogen 4×103, serum dilution 6.4×104
  IR (inhibition rate): 24.90%
Mouse antiserum; dilution of immunogen 4×103, serum dilution 8×103
  IR (inhibition rate): 81.74%
Mouse antiserum; dilution of immunogen 8×103, serum dilution 1.28×105
  IR (inhibition rate): 7.17%
Mouse antiserum; dilution of immunogen 8×103, serum dilution 1.6×104
  IR (inhibition rate): 58.20%
Mouse antiserum; dilution of immunogen 8×103, serum dilution 2×103
  IR (inhibition rate): 87.26%
Mouse antiserum; dilution of immunogen 8×103, serum dilution 2.56×105
  IR (inhibition rate): 59.68%
Mouse antiserum; dilution of immunogen 8×103, serum dilution 3.2×104
  IR (inhibition rate): 15.68%
Mouse antiserum; dilution of immunogen 8×103, serum dilution 4×103
  IR (inhibition rate): 84.15%
Mouse antiserum; dilution of immunogen 8×103, serum dilution 6.4×104
  IR (inhibition rate): 7.82%
Mouse antiserum; dilution of immunogen 8×103, serum dilution 8×103
  IR (inhibition rate): 76.22%
7D4 mAb; dilution of immunogen 1×103, dilution of serum 1.6×104
  IR (inhibition rate): 94%
7D4 mAb; dilution of immunogen 1×103, dilution of serum 2×103
  IR (inhibition rate): 97%
7D4 mAb; dilution of immunogen 1×103, dilution of serum 3.2×104
  IR (inhibition rate): 92%
7D4 mAb; dilution of immunogen 1×103, dilution of serum 4×103
  IR (inhibition rate): 98%
7D4 mAb; dilution of immunogen 1×103, dilution of serum 8×103
  IR (inhibition rate): 97%
7D4 mAb; dilution of immunogen 2×103, dilution of serum 1.6×104
  IR (inhibition rate): 92%
7D4 mAb; dilution of immunogen 2×103, dilution of serum 2×103
  IR (inhibition rate): 98%
7D4 mAb; dilution of immunogen 2×103, dilution of serum 3.2×104
  IR (inhibition rate): 85%
7D4 mAb; dilution of immunogen 2×103, dilution of serum 4×103
  IR (inhibition rate): 97%
7D4 mAb; dilution of immunogen 2×103, dilution of serum 8×103
  IR (inhibition rate): 96%
7D4 mAb; dilution of immunogen 4×103, dilution of serum 1.6×104
  IR (inhibition rate): 81%
7D4 mAb; dilution of immunogen 4×103, dilution of serum 2×103
  IR (inhibition rate): 97%
7D4 mAb; dilution of immunogen 4×103, dilution of serum 3.2×104
  IR (inhibition rate): 71%
7D4 mAb; dilution of immunogen 4×103, dilution of serum 4×103
  IR (inhibition rate): 95%
7D4 mAb; dilution of immunogen 4×103, dilution of serum 8×103
  IR (inhibition rate): 90%
7D4 mAb; dilution of immunogen 8×103, dilution of serum 1.6×104
  IR (inhibition rate): 67%
7D4 mAb; dilution of immunogen 8×103, dilution of serum 2×103
  IR (inhibition rate): 93%
7D4 mAb; dilution of immunogen 8×103, dilution of serum 3.2×104
  IR (inhibition rate): 55%
7D4 mAb; dilution of immunogen 8×103, dilution of serum 4×103
  IR (inhibition rate): 90%
7D4 mAb; dilution of immunogen 8×103, dilution of serum 8×103
  IR (inhibition rate): 82%
